Laboratory results reported in US10144732B2 (BIOGEN MA INC., priority 2014, dated 2018).
pIC50: −log10 of the molar value.

Biological target: T1, Human ATX protein (Homo sapiens, UniProt Q13822)
T1 construct: made in house
Assay: ATX biochemical assay (FRET, FS-3 substrate)
Conditions: FRET assay, FS-3 2 μM, ATX 1.0 μg/mL, 30 minutes preincubation, 2 hours reaction at room temperature; read-out: IC50
Source text: ATX (Autotaxin) is a 125 KDa glycoprotein with lysophospholipase D (LPLD) activity that generates the bioactive lipid lysophosphatidic acid (LPA) from lysophosphatidylcholine (LPC). The ATX biochemical assay utilizes a FRET (fluorescence resonance energy transfer) technology platform. The fluorescence signal of FRET substrate FS-3 is quenched due to intra-molecular FRET of a fluorophore to a non-fluorescing quencher (Ferguson, C. G., et al., Org Lett. 2006 May 11; 8(10): 2023-2026, which is incorporated by reference in its entirety). ATX catalyzes the hydrolysis of the substrate which separates the dabsyl quencher from the fluorescein reporter, which becomes fluorescent. The reaction is monitored by a SpectraMax M5 (Molecular Devices, Sunnyvale, Calif.) with at excitation wavelength 485 nm and emission wavelength […].
Fatty acid free-BSA (Sigma A8806): 10 mg/mL in H2O, stored at 4° C.
2×ATX assay buffer: 100 mM Tris, 280 mM NaCl, 10 mM KCl, 2 mM CaCl2, 2 mM MgCl2, pH 7.4.
Human ATX protein: expressed and purified in house. Stored at −80° C.
Substrate FS-3 (Echelon, L-2000): 100 μg in 77.74 μL H2O (1 mM stock), stored at −20° C.
384-well flat bottom plates—Corning #3575.
Compound dilution—All compounds were provided at 10 mM in 100% DMSO. In the first well, 2 μL of 10 mM compound was added to 78 μL of DMSO (1:40 dilution). In subsequent wells 3-fold dilution (total 10 dilutions) were performed.
1×ATX assay buffer was made up with a final concentration of 1 mg/mL fatty acid free-BSA using 2×ATX assay buffer, 10 mg/ml fatty acid free-BSA and ddH2O.
[…]. The final concentration of ATX in the reaction as 1.0 μg/mL.
2 μL per well of compounds was transferred to provide the desired concentration. The plate was centrifuged, then incubated at room temperature for 30 minutes on the shaker.
FS-3 was diluted with 1×ATX assay buffer to a concentration of FS-3 of 10 μM (5×). Then, 10 μL was added per well to the assay plate. The final concentration of FS-3 in the reaction was 2 μM. The plate was centrifuged. The plate was kept shaking at room temperature for 2 hours. Because FS-3 substrate is light sensitive, plates were kept covered and protected from light.
Fluorescence was measured using SpectraMax M5 (excitation at 485 nm/emission at 538 nm, top read).

SMILES	pIC50
O=C(C1CCCCC1)N1CCc2c(C(F)(F)F)nn(Cc3ccc(Cl)cc3F)c2C1 [Example 1-6, (1-(4-Chloro-2-fluorobenzyl)-3-(trifluoromethyl)-4,5-dihydro-1H-pyrazolo[3,4-c]pyridin-6(7H)-yl) (cyclohexyl)methanone]	< 5.00
O=C(Cc1ccncc1)N1CCc2c(C(F)(F)F)nn(Cc3ccc(Cl)cc3F)c2C1 [Example 1-7, 1-(1-(4-Chloro-2-fluorobenzyl)-3-(trifluoromethyl)-4,5-dihydro-1H-pyrazolo[3,4-c]pyridin-6(7H)-yl)-2-(pyridin-4-yl)ethanone]	< 5.00
CCOC(=O)C1CCC(CC(=O)N2CCc3c(C(F)(F)F)nn(Cc4ccc(Cl)cc4)c3C2)CC1 (stereo not shown) [Example 1-8, Ethyl 4-(2-(1-(4-chlorobenzyl)-3-(trifluoromethyl)-4,5-dihydro-1H-pyrazolo[3,4-c]pyridin-6(7H)-yl)-2-oxoethyl)cyclohexanecarboxylate]	≥ 7.00
CCOC(=O)C1CCC(CC(=O)N2CCc3c(C(F)(F)F)nn(Cc4ccc(Cl)cc4Cl)c3C2)CC1 (stereo not shown) [Example 1-9, Ethyl 4-(2-(1-(2,4-dichlorobenzyl)-3-(trifluoromethyl)-4,5-dihydro-1H-pyrazolo[3,4-c]pyridin-6(7H)-yl)-2-oxoethyl)cyclohexanecarboxylate]	≥ 7.00
CCOC(=O)C1CCC(CC(=O)N2CCc3c(C(F)(F)F)nn(Cc4ccc(C(F)(F)F)cc4)c3C2)CC1 (stereo not shown) [Example 1-10, Ethyl 4-(2-oxo-2-(3-(trifluoromethyl)-1-(4-(trifluoromethyl)benzyl)-4,5-dihydro-1H-pyrazolo[3,4-c]pyridin-6(7H)-yl)ethyl)cyclohexanecarboxylate]	≥ 7.00
COC(=O)c1ccc(CC(=O)N2CCc3c(C(F)(F)F)nn(Cc4ccc(Cl)cc4F)c3C2)cc1 [Example 1-11, Methyl 4-(2-(1-(4-chloro-2-fluorobenzyl)-3-(trifluoromethyl)-4,5-dihydro-1H-pyrazolo[3,4-c]pyridin-6(7H)-yl)-2-oxoethyl)benzoate]	≥ 7.00
O=C(Cc1ccc(F)cc1)N1CCc2c(C(F)(F)F)nn(Cc3ccc(Cl)cc3F)c2C1 [Example 1-12, 1-(1-(4-Chloro-2-fluorobenzyl)-3-(trifluoromethyl)-4,5-dihydro-1H-pyrazolo[3,4-c]pyridin-6(7H)-yl)-2-(4-fluorophenyl)ethanone]	≥ 7.00
CCOC(=O)C1CCC(CC(=O)N2CCc3c(C(F)(F)F)nn(Cc4ccccc4)c3C2)CC1 (stereo not shown) [Example 1-13, Ethyl 4-(2-(1-benzyl-3-(trifluoromethyl)-4,5-dihydro-1H-pyrazolo[3,4-c]pyridin-6(7H)-yl)-2-oxoethyl)cyclohexanecarboxylate]	≥ 7.00
O=C(CCc1nc2ccccc2s1)N1CCc2c(C(F)(F)F)nn(Cc3ccc(F)cc3)c2C1 [Example 1-14, 3-(Benzo[d]thiazol-2-yl)-1-(1-(4-fluorobenzyl)-3-(trifluoromethyl)-4,5-dihydro-1H-pyrazolo[3,4-c]pyridin-6(7H)-yl)propan-1-one]	≥ 7.00
O=C(CC1CCC(O)CC1)N1CCc2c(C(F)(F)F)nn(Cc3ccc(Cl)cc3F)c2C1 (stereo not shown) [Example 1-15, 1-(1-(4-Chloro-2-fluorobenzyl)-3-(trifluoromethyl)-4,5-dihydro-1H-pyrazolo[3,4-c]pyridin-6(7H)-yl)-2-(4-hydroxycyclohexyl)ethanone]	≥ 7.00

The next lines start with the values.

pIC50	SMILES
≥ 7.00	CCOC(=O)C1CCC(CC(=O)N2CCc3c(C(F)(F)F)nn(CC4CCCCC4)c3C2)CC1 (stereo not shown) [Example 1-16, Ethyl 4-(2-(1-(cyclohexylmethyl)-3-(trifluoromethyl)-4,5-dihydro-1H-pyrazolo[3,4-c]pyridin-6(7H)-yl)-2-oxoethyl)cyclohexanecarboxylate]
≥ 7.00	CCOC(=O)C1CCC(CC(=O)N2CCc3cnn(Cc4ccc(F)cc4)c3C2)CC1 (stereo not shown) [Example 1-17, Ethyl 4-(2-(1-(4-fluorobenzyl)-4,5-dihydro-1H-pyrazolo[3,4-c]pyridin-6(7H)-yl)-2-oxoethyl)cyclohexanecarboxylate]
≥ 7.00	CCOC(=O)C1CCC(CC(=O)N2CCc3c(C(F)(F)F)nn(Cc4cccc(F)c4)c3C2)CC1 (stereo not shown) [Example 1-18, Ethyl 4-(2-(1-(3-fluorobenzyl)-3-(trifluoromethyl)-4,5-dihydro-1H-pyrazolo[3,4-c]pyridin-6(7H)-yl)-2-oxoethyl)cyclohexanecarboxylate]
≥ 7.00	CCOC(=O)C1CCC(CC(=O)N2CCc3c(C(F)(F)F)nn(Cc4ccccc4F)c3C2)CC1 (stereo not shown) [Example 1-19, Ethyl 4-(2-(1-(2-fluorobenzyl)-3-(trifluoromethyl)-4,5-dihydro-1H-pyrazolo[3,4-c]pyridin-6(7H)-yl)-2-oxoethyl)cyclohexanecarboxylate]
< 5.00	O=C(C1CCn2cncc2C1)N1CCc2c(C(F)(F)F)nn(Cc3ccc(F)cc3)c2C1 (stereo not shown) [Example 1-20, (1-(4-Fluorobenzyl)-3-(trifluoromethyl)-4,5-dihydro-1H-pyrazolo[3,4-c]pyridin-6(7H)-yl)(5,6,7,8-tetrahydroimidazo[1,5-a]pyridin-7-yl)methanone]
≥ 7.00	CC1CCC(CC(=O)N2CCc3c(C(F)(F)F)nn(Cc4ccc(Cl)cc4F)c3C2)CC1 (stereo not shown) [Example 1-21, 1-(1-(4-Chloro-2-fluorobenzyl)-3-(trifluoromethyl)-4,5-dihydro-1H-pyrazolo[3,4-c]pyridin-6(7H)-yl)-2-(4-methylcyclohexyl)ethanone]
< 5.00	COC(=O)C1CCC(C(=O)N2CCc3c(C(F)(F)F)nn(Cc4ccc(F)cc4)c3C2)CC1 (stereo not shown) [Example 1-22, Methyl 4-(1-(4-fluorobenzyl)-3-(trifluoromethyl)-4,5,6,7-tetrahydro-1H-pyrazolo[3,4-c]pyridine-6-carbonyl)cyclohexanecarboxylate]
6.30 to 6.60	CCOC(=O)[C@H]1CC[C@H](CC(=O)N2CCc3c(C(F)(F)F)nn(C4CCCCC4)c3C2)CC1 [Example 1-24, trans-Ethyl 4-(2-(1-cyclohexyl-3-(trifluoromethyl)-4,5-dihydro-1H-pyrazolo[3,4-c]pyridin-6(7H)-yl)-2-oxoethyl)cyclohexanecarboxylate]
≥ 7.00	CCOC(=O)[C@H]1CC[C@H](CC(=O)N2CCc3c(C(F)(F)F)nn(Cc4ccc(C)cc4)c3C2)CC1 [Example 1-25, trans-Ethyl 4-(2-(1-(4-methylbenzyl)-3-(trifluoromethyl)-4,5-dihydro-1H-pyrazolo[3,4-c]pyridin-6(7H)-yl)-2-oxoethyl)cyclohexanecarboxylate]
≥ 7.00	CCOC(=O)[C@H]1CC[C@H](CC(=O)N2CCc3c(C(F)(F)F)nn(Cc4ccc(OC)cc4)c3C2)CC1 [Example 1-26, trans-Ethyl 4-(2-(1-(4-methoxylbenzyl)-3-(trifluoromethyl)-4,5-dihydro-1H-pyrazolo[3,4-c]pyridin-6(7H)-yl)-2-oxoethyl)cyclohexanecarboxylate]
≥ 7.00	COC(=O)C1CC2CCC(C1)C2CC(=O)N1CCc2c(C(F)(F)F)nn(Cc3ccc(Cl)cc3F)c2C1 (stereo not shown) [Example 1-27, Methyl 8-(2-(1-(4-chloro-2-fluorobenzyl)-3-(trifluoromethyl)-4,5-dihydro-1H-pyrazolo[3,4-c]pyridin-6(7H)-yl)-2-oxoethyl)bicyclo[3.2.1]octane-3-carboxylate]
6.60 to 7.00	CCOC(=O)[C@H]1CC[C@H](CC(=O)N2CCc3c(C(F)(F)F)nn(CCc4ccccc4)c3C2)CC1 [Example 1-28, trans-Ethyl 4-(2-oxo-2-(1-phenethyl-3-(trifluoromethyl)-4,5-dihydro-1H-pyrazolo[3,4-c]pyridin-6(7H)-yl)ethyl)cyclohexanecarboxylate]
≥ 7.00	O=C(CC1CCOCC1)N1CCc2c(C(F)(F)F)nn(Cc3ccc(Cl)cc3F)c2C1 [Example 1-29, 1-(1-(4-Chloro-2-fluorobenzyl)-3-(trifluoromethyl)-4,5-dihydro-1H-pyrazolo[3,4-c]pyridin-6(7H)-yl)-2-(tetrahydro-2H-pyran-4-yl)ethanone]
≥ 7.00	O=C(CC1CCOCC1)N1CCc2c(C(F)(F)F)nn(Cc3ccc(F)cc3)c2C1 [Example 1-30, 1-(1-(4-Fluorobenzyl)-3-(trifluoromethyl)-4,5-dihydro-1H-pyrazolo[3,4-c]pyridin-6(7H)-yl)-2-(tetrahydro-2H-pyran-4-yl)ethanone]
≥ 7.00	O=C(CCc1nnn[nH]1)N1CCc2c(C(F)(F)F)nn(Cc3ccc(Cl)cc3F)c2C1 [Example 1-31, 1-(1-(4-Chloro-2-fluorobenzyl)-3-(trifluoromethyl)-4,5-dihydro-1H-pyrazolo[3,4-c]pyridin-6(7H)-yl)-3-(1H-tetrazol-5-yl)propan-1-one]
